Structures can show the parent of a compound that is named as a salt. Where two headings read alike, the source gives them in different places.
Legend:
[1] = test system: EBOV mucin-domain-deleted glycoprotein pseudotyped VSV; assay: microbe, parasite or virus in culture; format: cell-based, Zaire ebolavirus; settings: Zaire ebolavirus, Vero, read-out: EC50 EBOV
[2] = test system: BDBV mucin-domain-deleted glycoprotein pseudotyped VSV; assay: microbe, parasite or virus in culture; format: cell-based, Bundibugyo ebolavirus; settings: Vesicular stomatitis virus, Vero, read-out: EC50 BDBV
in vitro = settings: African green monkey, CC50

Structure (SMILES) | EC50 ([1]; 24 h) [µM] | EC50 ([2]; 24 h) [µM] | EC50 [1] [µM] | EC50 [2] [µM] | CC50 (in vitro) [µM]
CC(NC(=O)C1CCCN1)C12CC3CC(CC(C3)C1)C2 (stereo in doubt) [Example D43, (2R)-N-[1-(adamantan-1-yl)ethyl] pyrrolidine-2-carboxamide] | 4.6 | 2.5 | – | – | –
O=C(N1CCC2(CCN(Cc3ccccc3)C2)C1)C12CC3CC(C1)CC(c1ccccc1)(C3)C2 (stereo not drawn) [Example A1, 2-benzyl-7-[(3-phenyladamantan-1-yl)carbonyl]-2,7-diazaspiro[4.4]nonane] | – | – | 0.22 | 0.25 | 5.8
O=C(CNC(=O)C12CC3CC(C1)CC(c1ccccc1)(C3)C2)N1CCC2(CCN(Cc3ccccc3)C2)C1 (stereo not drawn) [Example A2] | – | – | 0.3 | 0.39 | 8.5
COC(=O)c1ccc(COc2ccccc2CN2CCN(C(=O)CNC(=O)C34CC5CC(C3)CC(c3ccccc3)(C5)C4)CC2)cc1 [Example A3] | – | – | 0.03 | 1.24 | > 3
COC(=O)c1ccc(COc2ccccc2CN2CCN(C(=O)CNC(=O)CC34CC5CC(C3)CC(c3ccccc3)(C5)C4)CC2)cc1 [Example A4] | – | – | 0.19 | 1.24 | > 3
COC(=O)c1ccc(COc2ccccc2CN2CCN(C(=O)CNC(=O)C34CC5CC(CC3C5)C4)CC2)cc1 [Example A5] | – | – | 1.4 | 3.9 | > 3
O=C(CNC(=O)C12CC3CC(C1)CC(c1ccccc1)(C3)C2)NC1CCN(Cc2ccccc2)CC1 [Example A6] | – | – | 0.21 | 0.25 | 16.8
O=C(CNC(=O)C12CC3CC(C1)CC(c1ccccc1)(C3)C2)N[C@@H]1CCN(Cc2ccccc2)C1 [Example A7] | – | – | 0.48 | 0.84 | > 10
O=C(CNC(=O)C12CC3CC(C1)CC(c1ccccc1)(C3)C2)N1CC2CC1CN2Cc1ccccc1 (stereo not drawn) [Example A8] | – | – | 0.19 | 0.22 | > 10
O=C(N1CC2(CN(Cc3ccccc3)C2)C1)C12CC3CC(C1)CC(c1ccccc1)(C3)C2 [Example A9] | – | – | 0.23 | 0.29 | 10.8
O=C(N1CC2(CCN(Cc3ccccc3)C2)C1)C12CC3CC(C1)CC(c1ccccc1)(C3)C2 [Example A10] | – | – | 0.24 | 0.21 | 6.9
O=C(CC12CC3CC(C1)CC(c1ccccc1)(C3)C2)NCC(=O)N1CCC2(CCN(Cc3ccccc3)C2)C1 (stereo not drawn) [Example A11] | – | – | 0.2 | 0.23 | –
O=C(CNC(=O)C12CC3CC(CC1C3)C2)N1CCN(Cc2ccccc2)CC1 [Example A18] | – | – | > 10 | > 10 | –
O=C(NC1CCN(Cc2ccccc2)CC1)C12CC3CC(CC1C3)C2 [Example A21] | – | – | > 10 | > 10 | –
CN(CCN(C)C(=O)C12CC3CC(C1)CC(c1ccccc1)(C3)C2)Cc1ccccc1 [Example A22] | – | – | 0.26 | 0.22 | –
CN(C(=O)C12CC3CC(C1)CC(c1ccccc1)(C3)C2)C1CCN(Cc2ccccc2)CC1 [Example A23] | – | – | 0.21 | 0.17 | –
CN1CC[C@@H](NC(=O)CC23CC4CC(C2)CC(c2ccccc2)(C4)C3)C1 [Example A40] | – | – | 0.31 | 0.16 | –
O=C(CC12CC3CC(CC(C3)C1)C2)N1CC2CC1CN2Cc1ccccc1 (stereo not drawn) [Example A53] | – | – | 9.2 | 9 | –
COC(=O)c1ccc(COc2ccccc2CN2CC3CC2CN3C(=O)CC23CC4CC(CC(C4)C2)C3)cc1 (stereo not drawn) [Example A57] | – | – | 2.9 | > 10 | –
COC(=O)c1ccc(COc2ccccc2CN2CCC3(CCN(C(=O)CNC(=O)CC45CC6CC(CC(C6)C4)C5)C3)C2)cc1 (stereo not drawn) [Example A59] | – | – | 1.1 | 1.5 | –
O=C(NC1CCNCC1)C12CC3CC(C1)CC(c1ccc([N+](=O)[O-])cc1)(C3)C2 [Example A76] | – | – | 1.05 | 1.06 | –
CC12CC3CC(C(=O)NCC4(O)CNC4)(C1)CC(c1ccccc1)(C3)C2 (stereo not drawn) [Example A101] | – | – | > 1 | > 1 | –
COC(=O)[C@H]1CN(C(=O)C23CC4CC(C)(C2)CC(c2ccccc2)(C4)C3)CCN1 (stereo partly drawn) [Example A106] | – | – | > 1 | > 1 | –
CCOC12CC3CC(C1)CC(C(=O)NC1CCNCC1)(C3)C2 [Example A113] | – | – | > 1 | > 1 | –

Structure (SMILES) | EC50 ([1]; 24 h) [µM] | EC50 ([2]; 24 h) [µM] | EC50 [1] [µM] | EC50 [2] [µM] | CC50 (in vitro) [µM]
N[C@H]1CC[C@H](NC(=O)C23CC4CC(C(=O)N5CCCC5)(C2)CC(c2ccccc2)(C4)C3)CC1 (stereo partly drawn) [Example A114] | – | – | > 1 | > 1 | –
N[C@H]1CC[C@H](NC(=O)C23CC4CC(CO)(C2)CC(c2ccccc2)(C4)C3)CC1 (stereo partly drawn) [Example A116, trans-N-(4-aminocyclohexyl)-3-(hydroxymethyl)-5-phenyladamantane-1-carboxamide] | – | – | > 1 | > 1 | –
CCN1CCN(C(=O)C23CC4CC(C2)CC(c2ccc(C)cc2)(C4)C3)CC1 [Example B16, 1-ethyl-4-{[3-(4-methylphenyl)adamantan 1-yl]carbonyl} piperazine] | 1 | 0.9 | – | – | –
CC(C)C(NC(=O)C12CC3CC(CC(C3)C1)C2)C(=O)NC1CCN(Cc2ccccc2)CC1 (stereo not drawn) [Example B17, 2-(adamantan-1-ylformamido)-N-(1-benzylpiperidin-4-yl)-3-methylbutanamide] | > 5 | < 5 | – | – | –
Cc1ccc(C23CC4CC(CC(C(=O)N5CCN(CCO)CC5)(C4)C2)C3)cc1 [Example B18, 2-(4-{[3-(4-methylphenyl)adamantan-1-yl]carbonyl}piperazin-1-yl)ethan-1-ol] | > 5 | > 5 | – | – | –
O=C(NC1CCNCC1)C12CC3CC(CC(C3)C1)C2 [Example B19, N-(piperidin-4-yl)adamantane-1-carboxamide] | 1.1 | > 1 | – | – | –
NCc1ccc(OCC23CC4CC(C2)CC(c2ccccc2)(C4)C3)cc1 [Example C17, {4-[(3-phenyladamantan-1-yl)methoxy]phenyl}methanamine] | – | – | > 1 | 1.2 | –
COc1ccc(OCC(O)CNCC23CC4CC(CC(C4)C2)C3)c(C(C)(C)C)c1 (stereo not drawn) [Example D2, (adamantan-1-ylmethyl) [3-(2-tert-butyl-4-methoxyphenoxy)-2-hydroxypropyl]amine] | 0.68 | 0.62 | – | – | –
CCC(NCC(O)COc1ccccc1C(C)C)C12CC3CC(CC(C3)C1)C2 (stereo not drawn) [Example D3] | 1.29 | – | – | – | –
COc1cccc(COCC(O)CNCC23CC4CC(CC(C4)C2)C3)c1 (stereo not drawn) [Example D6] | 3.45 | 1.5 | – | – | –
O=C(CN1CCN(CCC23CC4CC(CC(C4)C2)C3)CC1)N1CCCCC1 [Example D7, 2-{4-[2-(adamantan-1-yl)ethyl]piperazin-1-yl}-1-(piperidin-1-yl) ethan-1-one] | 6 | 2.6 | – | – | –
CCC1CCCCN1CC(O)COCCC12CC3CC(CC(C3)C1)C2 (stereo not drawn) [Example D9, 1-[2-(adamantan-1-yl)ethoxy]-3-(2-ethylpiperidin-1-yl)propan-2-ol hydrochloride] | 0.25 | 0.21 | – | – | –
OC(COCCC12CC3CC(CC(C3)C1)C2)CN1CCc2ccccc2C1 (stereo not drawn) [Example D14, 1-[2-(adamantan-1-yl)ethoxy]-3-(1,2,3,4-tetrahydroisoquinolin-2-yl) propan-2-ol] | 2.1 | 2.67 | – | – | –
OC(COCCC12CC3CC(CC(C3)C1)C2)CN1CCN(c2ccccn2)CC1 (stereo not drawn) [Example D15, 1-[2-(adamantan-1-yl)ethoxy]-3-[4-(pyridin-2-yl)piperazin-1-yl] propan-2-ol] | 2.9 | 2.8 | – | – | –
OCCN(CCO)CC(O)COCCC12CC3CC(CC(C3)C1)C2 (stereo not drawn) [Example D17, 2-({3-[2-(adamantan-1yl)ethoxy]-2-hydroxypropyl}(2-hydroxyethyl)amino)ethan-1-ol] | 8.8 | 0.6 | – | – | –
OC(COC12CC3CC(CC(C3)C1)C2)CN1CCc2ccccc2C1 (stereo not drawn) [Example D18, 1-(adamantan-1-yloxy)-3-(1,2,3,4-tetrahydroisoquinolin-2-yl)propan-2-ol] | > 10 | – | – | – | –
COc1ccccc1N1CCN(CC(O)COC23CC4CC(CC(C4)C2)C3)CC1 (stereo not drawn) [Example D19, 1-(adamantan-1-yloxy)-3-[4-(2-methoxyphenyl)piperazin-1-yl] propan-2-ol] | > 10 | – | – | – | –
CC1CCCCN1CC(O)COC12CC3CC(CC(C3)C1)C2 (stereo not drawn) [Example D20, 1-(adamantan-1-yloxy)-3-(2-methylpiperidin-1-yl)propan-2-ol] | > 10 | – | – | – | –
CN1CCCN(CC(O)COc2ccc(C34CC5CC(CC(C5)C3)C4)cc2)CC1 (stereo not drawn) [Example D30, 1-[4-(adamantan-1-yl)phenoxy]-3-(4-methyl-1,4-diazepan-1-yl)propan-2-ol] | 0.19 | 0.47 | – | – | –
OC(COc1ccc(C23CC4CC(CC(C4)C2)C3)cc1)CN1CCN(Cc2ccc3c(c2)OCO3)CC1 (stereo not drawn) [Example D31, 1-[4-(adamantan-1-yl)phenoxy]-3-[4-(2H-1,3-benzodioxo1-5-ylmethyl)piperazin-1-yl]propan-2-ol] | 0.23 | 1.03 | – | – | –
CN(C)CCNS(=O)(=O)c1ccc(C23CC4CC(CC(C4)C2)C3)cc1 [Example D33, 4-(adamantan-1-yl)-N-[2-(dimethylamino)ethyl] benzene-1-sulfonamide] | 0.44 | 0.42 | – | – | –
CN1CCN(c2nc(C34CC5CC(CC(C5)C3)C4)cs2)CC1 [Example D35, 1-[4-(adamantan-1-yl)-1,3-thiazol-2-yl]-4-methylpiperazine] | 0.44 | 0.62 | – | – | –
c1ccn2c(CN3CCCCC3)c(C34CC5CC(CC(C5)C3)C4)nc2c1 [Example D37] | 8.9 | 3.2 | – | – | –
C#CCN1CCC(C(=O)Nc2cc(C34CC5CC(CC(C5)C3)C4)n[nH]2)CC1 [Example D38, N-[5-(adamantan-1-yl)-1H-pyrazol-3-yl]-1-(prop-2-yn-1-yl) piperidine-4-carboxamide] | 3.7 | 6.8 | – | – | –

From US12240857B2 (priority 2017, dated 2025)
